Values of other authors, collected in US20260206743A1, “PROPINEB NANOSUSPENSION” (priority 2022, published 2026).
Like-named read-outs stand apart in the source and are kept apart here.

**Q.** With “poly [1,2-propylene bis(dithiocarbamate)] zinc [Propineb]” as the substance, how does the Solubility in water (20° C.) read?
**A.** < 10 µg/mL

**Q.** And the “Solubility in organic solvent” value (DMF+DMSO mixture)?
**A.** exceed 200 g/L

**Q.** And the “Solubility in organic solvent” value (dichloromethane)?
**A.** < 100 µg/mL

**Q.** What about the “Solubility in organic solvent” value (hexane) of the same substance?
**A.** < 100 µg/mL

**Q.** And the “Solubility in organic solvent” value (toluene)?
**A.** < 100 µg/mL
